Laboratory results: US20140228312A1, “ANTIBIOTIC COMPOSITION AND ITS USES” (Agency for Science, Technology and Research, priority 2011, published 2014)

Experiments:
[1] = test system: B. cereus; assay: MIC assay, antibiotic with or without DSF-family molecules; type: cell-based, Bacillus cereus; settings: for MIC of Gentamicin, Mean: gentamicin alone (MeOH control, no DSF-family molecule)
Procedure: (§1) Minimum inhibitory concentration (MIC) was determined according to the 2003 guidelines of Clinical and Laboratory Standards Institute (CLSI) using 96-well microtiter plates. The two-fold dilution series of antibacterial agents or antibiotics were prepared with distilled water, methanol, or dimethyl sulfoxide (DMSO). Overnight cultures of bacteria were inoculated at an OD600 of 0.025 in Luria-Bertani (LB) broth supplemented with the respective antibiotic in the absence or presence of DSF-family molecules (Table 1). One hundred microliters of inoculated culture were grown in each well at 37° C. with shaking at 150 rpm for 24 hours. MIC was defined as the lowest concentration of antibiotic in which bacterial growth in the well was not measureable by determination of the turbidity at 600 nm.

[2] = test system: B. cereus; assay: Bacterial growth analysis (Bioscreen-C); type: cell-based, Bacillus cereus; settings: final concentration of 50 μM, no antibiotic
Procedure: (§2) Overnight bacterial cultures grown in LB broth was inoculated in the same medium to an OD600 of 0.025; the medium was supplemented with a respective antibiotic and DSF-family signals were added in a final concentration of 50 μM or otherwise indicated. Three hundred microliters of inoculated culture were grown in each well at 37° C. in a low intensity shaking model using the Bioscreen-C Automated Growth Curves Analysis System (OY Growth Curves AB Ltd, Finland).

[3] = test system: P. aeruginosa strain PAO1; assay: Bacterial growth analysis (Bioscreen-C); type: cell-based, Pseudomonas aeruginosa
Procedure: as §2
P. aeruginosa is a major source of opportunistic infections in both immunocompromised individuals and cystic fibrosis patients (Bodey et al., 1983; Richards et al., 2000). It appeared to be less responsive to DSF than other tested bacterial pathogen in our preliminary MIC assay. We therefore used the Bioscreen-C Automated Growth Curves Analysis System to determine the synergistic effect of DSF with antibiotics. Gentamicin and kanamycin were added to the culture of P. aeruginosa strain PAO1 at a final concentration of 2 nM and 0.2 μM, respectively, in the absence and presence of 50 μM DSF.

[4] = test system: S. aureus; assay: MIC assay, antibiotic with or without DSF; type: cell-based, Staphylococcus aureus; settings: DSF 50 μM
Procedure: as §1

[5] = test system: N. subflava; assay: MIC assay, antibiotic with or without DSF; type: cell-based, Neisseria subflava; settings: DSF 50 μM
Procedure: as §1

[6] = test system: M. smegmatis; assay: MIC assay, antibiotic with or without DSF; type: cell-based, Mycobacterium smegmatis; settings: DSF 50 μM
Procedure: as §1

[7] = test system: B. thuringiensis; assay: MIC assay, antibiotic with or without DSF; type: cell-based, Bacillus thuringiensis; settings: DSF 50 μM
Procedure: as §1

[8] = 50 μM DSF-family molecule vs MeOH control

Molecule: CCCCCCCCCCCC/C=C/C(=O)O [Compound T15]
- Fold Change of MIC of Ampicillin [1, 8]: 0
- Fold Change of MIC of Kanamycin [1, 8]: 2
- Fold Change of MIC of Rifampicin [1, 8]: 2
- Fold change of MIC of Gentamicin [1, 8]: 0

Molecule: CCCCCCCCC/C=C\C(=O)O [Compound C12]
- effect on bacterial growth rate [2]: did not affect the bacterial growth rate
- Fold Change of MIC of Ampicillin [1, 8]: 0
- Fold Change of MIC of Kanamycin [1, 8]: 4
- Fold Change of MIC of Rifampicin [1, 8]: 2.6
- Fold change of MIC of Gentamicin [1, 8]: 8

Molecule: CCCCCCCC/C=C/C(=O)O [Compound T11]
- Fold Change of MIC of Kanamycin [1, 8]: 8
- Fold Change of MIC of Rifampicin [1, 8]: 2.6
- Fold change of MIC of Gentamicin [1, 8]: 16

Molecule: CCCCCCC/C=C/C(=O)O [Compound T10]
- Fold Change of MIC of Ampicillin [1, 8]: 0
- Fold Change of MIC of Kanamycin [1, 8]: 4
- Fold Change of MIC of Rifampicin [1, 8]: 2
- Fold change of MIC of Gentamicin [1, 8]: 2

Molecule: CCCCCCCCCCCC/C=C\C(=O)O [Compound C15]
- drug adjuvant with ampicillin ([1]; 50 μM DSF-family molecule): best drug adjuvant with ampicillin
- Fold Change of MIC of Kanamycin [1, 8]: 32
- Fold Change of MIC of Rifampicin [1, 8]: 4
- Fold change of MIC of Gentamicin [1, 8]: 128

Molecule: CCCCCCCCCC/C=C\C(=O)O [Compound C13]
- effect on bacterial growth rate [2]: did not affect the bacterial growth rate
- Fold Change of MIC of Kanamycin ([1]; 5 μM C13 vs MeOH): 2
- Fold change of MIC of Gentamicin ([1]; 5 μM C13 vs MeOH): 0
- Fold Change of MIC of Kanamycin ([1]; 10 μM C13 vs MeOH): 2
- Fold change of MIC of Gentamicin ([1]; 10 μM C13 vs MeOH): 2
- Fold Change of MIC of Kanamycin ([1]; 20 μM C13 vs MeOH): 8
- Fold change of MIC of Gentamicin ([1]; 20 μM C13 vs MeOH): 4
- Fold Change of MIC of Kanamycin ([1]; 30 μM C13 vs MeOH): 8
- Fold change of MIC of Gentamicin ([1]; 30 μM C13 vs MeOH): 8
- Fold Change of MIC of Kanamycin ([1]; 40 μM C13 vs MeOH): 16
- Fold change of MIC of Gentamicin ([1]; 40 μM C13 vs MeOH): 21.3
- Fold Change of MIC of Kanamycin ([1]; 50 μM C13 vs MeOH): 16
- Fold change of MIC of Gentamicin ([1]; 50 μM C13 vs MeOH): 32
- Fold Change of MIC of Ampicillin [1, 8]: 0
- Fold Change of MIC of Kanamycin [1, 8]: 16
- Fold Change of MIC of Rifampicin [1, 8]: 2.6
- Fold change of MIC of Gentamicin [1, 8]: 32

Molecule: CCCCC/C=C/C(=O)O [Compound T8]
- Fold Change of MIC of Ampicillin [1, 8]: 0
- Fold Change of MIC of Kanamycin [1, 8]: 2
- Fold Change of MIC of Rifampicin [1, 8]: 0
- Fold change of MIC of Gentamicin [1, 8]: 0

Molecule: CCCCCCCCCCCC(=O)O [Compound S12]
- Fold Change of MIC of Ampicillin [1, 8]: 0
- Fold Change of MIC of Kanamycin [1, 8]: 8
- Fold Change of MIC of Rifampicin [1, 8]: 2
- Fold change of MIC of Gentamicin [1, 8]: 4

Molecule: gentamicin [reference compound]
- MIC of Gentamicin, Mean [1]: 8 mg/L
- MIC of Gentamicin, Mean ([1]; listed as gentamicin): 8.0 mg/L
- time of recovery of bacterial growth ([3]; gentamicin 2 nM alone): 10 hour post inoculation

Molecule: NC[C@H]1O[C@H](O[C@H]2[C@H](O)[C@@H](O[C@H]3O[C@H](CO)[C@@H](O)[C@H](N)[C@H]3O)[C@H](N)C[C@@H]2N)[C@H](O)[C@@H](O)[C@@H]1O [Kanamycin, kanamycin, reference compound]
- time of recovery of bacterial growth ([3]; kanamycin 0.2 μM alone): 22 hour post inoculation

Molecule: CCCCCCCCC/C=C/C(=O)O [Compound T12]
- Fold Change of MIC of Ampicillin [1, 8]: 0
- Fold Change of MIC of Kanamycin [1, 8]: 16
- Fold Change of MIC of Rifampicin [1, 8]: 1.3
- Fold change of MIC of Gentamicin [1, 8]: 21.3

Molecule: CC(C)CCCCCCC/C=C\C(=O)O [DSF, cis 11-methyl-2-dodecenoic acid]
- effect on bacterial growth rate [2]: did not affect the bacterial growth rate
- reduction of MIC of ampicillin [4]: 50%
- reduction of MIC of gentamicin [4]: 50%
- reduction of MIC of kanamycin [4]: 50%
- effect on MIC of ampicillin [5]: did not affect
- effect on MIC of rifampicin [5]: did not affect
- reduction of MIC of gentamicin [5]: about 50%
- reduction of MIC of kanamycin [5]: about 50%
- enhancement of susceptibility to gentamicin [6]: 50%
- enhancement of susceptibility to kanamycin [6]: 25%
- enhancement of susceptibility to trimethoprim [6]: 50%
- decrease of MIC of ampicillin [7]: 75%
- decrease of MIC of gentamicin [7]: 93.75%
- decrease of MIC of kanamycin [7]: 93.75%
- decrease of MIC of rifampicin [7]: 75%
- Fold Change of MIC of Kanamycin ([1]; 5 μM DSF vs MeOH): 1.3
- Fold change of MIC of Gentamicin ([1]; 5 μM DSF vs MeOH): 2
- Fold Change of MIC of Kanamycin ([1]; 10 μM DSF vs MeOH): 2
- Fold change of MIC of Gentamicin ([1]; 10 μM DSF vs MeOH): 2
- Fold Change of MIC of Kanamycin ([1]; 20 μM DSF vs MeOH): 2
- Fold change of MIC of Gentamicin ([1]; 20 μM DSF vs MeOH): 5.3
- Fold Change of MIC of Kanamycin ([1]; 30 μM DSF vs MeOH): 5.3
- Fold change of MIC of Gentamicin ([1]; 30 μM DSF vs MeOH): 8
- Fold Change of MIC of Kanamycin ([1]; 40 μM DSF vs MeOH): 5.3
- Fold change of MIC of Gentamicin ([1]; 40 μM DSF vs MeOH): 16
- Fold Change of MIC of Kanamycin ([1]; 50 μM DSF vs MeOH): 16
- Fold change of MIC of Gentamicin ([1]; 50 μM DSF vs MeOH): 16
- Fold Change of MIC of Ampicillin [1, 8]: 0
- Fold Change of MIC of Kanamycin [1, 8]: 16
- Fold Change of MIC of Rifampicin [1, 8]: 2
- Fold change of MIC of Gentamicin [1, 8]: 16
- effect on susceptibility to gentamicin ([3]; 50 μM DSF + gentamicin 2 nM): enhanced the susceptibility
- delay of bacterial growth ([3]; 50 μM DSF + gentamicin 2 nM vs gentamicin alone): 6 h
- effect on susceptibility to kanamycin ([3]; 50 μM DSF + kanamycin 0.2 μM): enhanced the susceptibility
- delay of bacterial growth ([3]; 50 μM DSF + kanamycin 0.2 μM vs kanamycin alone): 8 h
- effect on growth rate ([3]; 50 μM DSF, no antibiotic): did not affect the growth rate

Molecule: CCCCCCC/C=C\C(=O)O [Compound C10]
- Fold Change of MIC of Ampicillin [1, 8]: 0
- Fold Change of MIC of Kanamycin [1, 8]: 4
- Fold Change of MIC of Rifampicin [1, 8]: 2.6
- Fold change of MIC of Gentamicin [1, 8]: 2

Molecule: CCCCCCCCCCC/C=C\C(=O)O [Compound C14]
- Fold Change of MIC of Ampicillin [1, 8]: 0
- Fold Change of MIC of Kanamycin [1, 8]: 32
- Fold Change of MIC of Rifampicin [1, 8]: 2
- Fold change of MIC of Gentamicin [1, 8]: 32

Molecule: CCCCCCCC/C=C\C(=O)O [Compound C11]
- Fold Change of MIC of Kanamycin [1, 8]: 16
- Fold Change of MIC of Rifampicin [1, 8]: 4
- Fold change of MIC of Gentamicin [1, 8]: 16

Molecule: CCCCC/C=C\C(=O)O [Compound C8]
- Fold Change of MIC of Ampicillin [1, 8]: 0
- Fold Change of MIC of Kanamycin [1, 8]: 2
- Fold Change of MIC of Rifampicin [1, 8]: 2
- Fold change of MIC of Gentamicin [1, 8]: 0

Molecule: CCCCCCCCCCC/C=C/C(=O)O [Compound T14]
- synergistic activity with kanamycin ([1]; 50 μM DSF-family molecule): strongest synergistic activity
- Fold Change of MIC of Kanamycin [1, 8]: 64
- Fold Change of MIC of Rifampicin [1, 8]: 1.3
- Fold change of MIC of Gentamicin [1, 8]: 128

Molecule: CCCCCCCCCC/C=C/C(=O)O [Compound T13]
- Fold Change of MIC of Ampicillin [1, 8]: 0
- Fold Change of MIC of Kanamycin [1, 8]: 5.3
- Fold Change of MIC of Rifampicin [1, 8]: 2
- Fold change of MIC of Gentamicin [1, 8]: 8
